Experimental data from US20210338647A1, “Combination of Acetylcholinesterase Inhibitor and 5-HT4 Receptor Agonist As Neuroprotective Agent In the Treatment of Neurodegenerative Diseases” (UNIVERSITE DE CAEN NORMANDIE, priority 2018, published 2021).

How the values were obtained:
[1] = system: 5XFAD mice; assay: Novel object recognition test in chronically treated 5XFAD mice; type: in vivo, mouse; conditions: 5XFAD females, 1 mg/kg twice a week for 3 months
Procedure: (§1) 5XFAD mice received chronic treatments with drugs or vehicle according to 2 different protocols. In each experiment, drugs or vehicle solution were administered i.p. twice a week (1 mg/kg). In “Protocol 1”, mice (n=6-7 mice per group) were treated with compounds for two months, from 2 to 4 months of age. In “Protocol 2”, mice (n=7) were treated with compounds for three months, from 1 month to 4 months of age. At the end of each protocol, mice were anesthetized with a mixture of 100 mg/kg ketamine and 10 mg/kg xylazine in saline solution and perfused transcardially with PBS. Brains were quickly isolated on ice, the olfactory bulbs and cerebellum removed and the two hemispheres divided. One hemisphere was frozen on dry ice and stored at −80° C. for biochemical analysis, while the other was post-fixed in 4% PFA for immunohistochemistry (IHC).
(§2) 28 female 5XFAD mice (C57BL/6J genetic background) were used in this study. Mice received vehicle or compounds (1 mg/kg) i.p., twice a week for three months, from 1 to 4 months of age.

[2] = system: rat primary hippocampal neurons injured with Aβ 1-42; assay: Number of synapses (PSD95/SYN overlap) in primary culture of hippocampal neurons injured with Aβ 1-42; type: cell-based; conditions: from 5 nM to 1 μM; Aβ 1-42 injured hippocampal neurons; Example 1
Procedure: Rat hippocampal neurons were cultured as described by Callizot et al. (2013) J. Neurosci. Res. 91706-716. Pregnant female rats of 17 days gestation (Rats Wistar; Janvier Labs France) were killed using a deep anesthesia with CO2 chamber followed by a cervical dislocation. Then, fetuses were removed from the uterus and immediately placed in ice-cold L15 Leibovitz medium with a 2% penicillin (10,000 U/ml) and streptomycin (10 mg/ml) solution (PS) and 1% bovine serum albumin (BSA). Hippocampal neurons were treated for 20 min at 37° C. with a trypsin-EDTA solution at a final concentration of 0.05% trypsin and 0.02% EDTA. The dissociation was stopped by adding Dulbecco's modified Eagle's medium (DMEM) with 4.5 g/l of glucose, containing DNAse I grade 11 (final concentration 0.5 mg/ml) and 10% fetal calf serum (FCS). Cells were mechanically dissociated by three forced passages through the tip of a 10-ml pipette and then centrifuged at 515×g for 10 min at 4° C. The supernatant was discarded, and the pellet was resuspended in a defined culture medium consisting of Neurobasal medium with a 2% solution of B27 supplement, 2 mmol/l of L-glutamine, 2% of PS solution, and 10 ng/ml of brain-derived neurotrophic factor (BDNF). Viable cells were counted in a Neubauer cytometer, using the trypan blue exclusion test. […] The medium was changed every 2 days.
The hippocampal neurons were exposed with Aβ solutions (see below) after 17 days of culture. The Aβ1-42 preparation was done following the procedure described by Callizot et al. (2013) J. Neurosci. Res. 91706-716. Briefly, Aβ1-42 peptide was dissolved in the defined culture medium mentioned above, at an initial concentration of 40 μM. This solution was gently agitated for 3 days at 37° C. in the dark and immediately used after being properly diluted in culture medium to the concentrations used (20 μM (plate 1) or 2.5 μM (plate 2) corresponding to 2 μM or 0.25 μM of oligomers (AβO) respectively).
Donecopride fumarate was solved in culture medium and preincubated 1 h before Aβ application. Aβ1-42 preparation was added to a final concentration of 20 or 2.5 μM (=2 μM or 0.25 μM of AβO, evaluated by automatic Western Blot) diluted in control medium in presence of Donecopride.
Donecopride fumarate (Donecopride) was tested on one culture in a 96 well plate (6 wells per conditions). The compound was preincubated one hour before […] application. The following conditions were assessed:
After permeabilization with 0.1% of saponin, cells were incubated for 2 h with:
a) mouse monoclonal antibody anti post synaptic density 95 kDa (PSD95) at a dilution of 1/100 in PBS containing 1% fetal calf serum and 0.1% of saponin.
b) Rabbit polyclonal antibody anti-synaptophysin (SYN) at the dilution of 1/100 in PBS containing 1% fetal calf serum and 0.1% of saponin.
For each condition, 40 pictures per well were taken using ImageXpress (Molecular Devices) with 40× magnification. All images were taken with the same acquisition parameters.
Synapses evaluation was performed automatically by using Custom module editor (Molecular Devices).
Total number of synapses (overlapping between PSD95/SYN).
To assess the formation of synapses, the distribution of PSD-95, a post-synaptic marker, and synaptophysin, a pre-synaptic marker, was studied. A structure positive for both PSD-95 and synaptophysin staining was considered as a synapse.
Rat hippocampal neurons were cultured as described by Callizot et al. (2013) J. Neurosci. Res. 91:706-716.

[3] = system: 5XFAD mice; assay: Aβ42 concentration in cerebrospinal fluid of chronically treated 5XFAD mice; type: in vivo, mouse; conditions: 1 mg/kg twice a week for 3 months, versus controls
Procedure: as §1, §2

[4] = system: 5XFAD mice; assay: Amyloid plaque number (thioflavin T staining) in brain sections of 5XFAD mice; type: in vivo, mouse; conditions: 1 mg/kg twice a week for 3 months, versus controls
Procedure: as §1
Thirty-micrometer-thick sections were cut using a vibratome (Microm HM 650V, Thermo Scientific, Saint Herblain, France) and stored in cryoprotectant medium at −20° C. […]
Images were acquired with an Axiolmager Z1 microscope (Carl Zeiss S.A.S., Marly le Roi, France). […] GFAP expression was quantified using Image J software and results are expressed as area fractions. […]

[5] = system: 5XFAD mice; assay: Astrogliosis (GFAP staining) in brain sections of 5XFAD mice; type: in vivo, mouse; conditions: 1 mg/kg twice a week for 3 months, versus controls
Procedure: as §1
Thirty-micrometer-thick sections were cut using a vibratome (Microm HM 650V, Thermo Scientific, Saint Herblain, France) and stored in cryoprotectant medium at −20° C. For the labeling of amyloid plaques, free-floating tissue sections of frontal cortex, hippocampus and entorhinal cortex (coordinates from the bregma: frontal cortex=1.98 mm, hippocampus=−1.94 mm, entorhinal cortex=−3.08 mm) were extensively washed in PBS and then incubated in blocking solution (PBS; 3% BSA; 0.1% Triton X-100) for 1 h. Sections were stained with Hoechst dye (1:1000, Life Technologies, Saint Aubin, France) for 15 minutes to detect cell nuclei and then with freshly prepared thioflavin T solution (#T3516-5G, Sigma-Aldrich) (final concentration: 0.01 mg/ml in blocking buffer) for 15 minutes. After washing in 70% ethanol for 5 minutes, samples were mounted on poly-lysine slides with coverslips. For GFAP (glial fibrillary acidic protein) staining, free-floating brain sections were blocked as before and incubated with polyclonal rabbit anti-GFAP (1:1000, Z0334, Dako, Les Ullis, France) at 4° C. overnight. After thioflavin T staining and washing with 70% ethanol, the secondary Alexafluor 594 goat anti-rabbit antibody (1:1000, A11012, Life Technologies) was added for 2 h. PBS washes and mounting were performed as described before.
Images were acquired with an Axiolmager Z1 microscope (Carl Zeiss S.A.S., Marly le Roi, France). Analysis of thioflavin T staining was performed blindly and data are presented as the mean number of particles per mm^2 in two to three tissue sections from the same brain area/animal (Image J software). GFAP expression was quantified using Image J software and results are expressed as area fractions.
as §2

## COc1cc(N)c(Cl)cc1C(=O)CCC1CCN(CC2CCCCC2)CC1 [Donecopride]
[1]
  Total exploration time during the training session (NOR test): did not differ significantly
[1]; 24 h interval between training and test
  Recognition memory: time exploring novel versus familiar object (NOR test): able to prevent memory alteration
[2]
  Preservation of the number of synapses: preserve the number of synapses, on a dose dependent manner
[3]
  Aβ42 concentration in cerebrospinal fluid (CSF): not significantly different compared to controls
[4]
  Amyloid plaque number in hippocampus: not significantly different compared to controls
[5]
  GFAP staining in frontal cortex: not significantly different compared to controls
  GFAP staining in hippocampus: not significantly different compared to controls
